Data taken from patent US12203938B2, “Levetiracetam immunoassays” (ARK Diagnostics, Inc., priority 2008, dated 2025).

Columns and labels:
antibody #12019-P8 = assay: Specificity / crossreactivity of the immunoassay with levetiracetam metabolite; assay type: binding, rabbit; conditions: for % Cross Reactivity: 100 × apparent concentration of levetiracetam / concentration of crossreactant
Source text: Antibodies obtained using any of the disclosed techniques are screened or purified not only for their ability to react with levetiracetam, but for a low cross-reactivity with potential interfering substances. “Cross-reactivity” may be determined in a quantitative immunoassay by establishing a standard curve using known dilutions of the target analyte, levetiracetam. The standard curve is then used to calculate the apparent concentration of the interfering substance present in various known amounts in samples assayed under similar condition. The cross-reactivity can be calculated as the apparent concentration divided by the actual concentration multiplied by 100. A certain immunoassay for determining cross-reactivity is a homogeneous enzyme immunoassay using a wild type G6PDH as described in U.S. Pat. No. 3,817,837 or mutant G6PDH engineered to contain a cysteine per subunit as described in U.S. Pat. Nos. 6,033,890, 6,090,567 and 6,455,288. Furthermore, the cross-reactivity can be determined in the same type of immunoassay in which the antibody will ultimately be used.
(§1) The levetiracetam derivative antibodies and enzyme conjugates may be advantageously used in a homogeneous assay format to detect levetiracetam in samples. An enzyme immunoassay or ARK Assay, which is a homogeneous enzyme immunoassay experiment, was performed to test antibodies prepared as described in Example 22. The ARK Assay for levetiracetam was conducted using a liquid, ready-to-use, two-reagent kit. A clinical chemistry analyzer useful to set up the assay is HITACHI 917. The HITACHI 917 is an automated biochemistry analyzer used by medical laboratories to process biological fluid specimens, such as urine, cerebrospinal fluid, and most commonly, blood. Manufactured by Boehringer Mannheim, the HITACHI 917 is a commonly used routine chemical chemistry. Levetiracetam containing sample was incubated with antibody reagent followed by the addition of the enzyme conjugate reagent. The enzyme conjugate activity decreases upon binding to the antibody. […] The oxidation of G6P is coupled with the reduction of NAD to NADH, which was measured at 340 nm. The change in the absorbance at 340 nm was measured spectrophotometrically. The levetiracetam concentration in a specimen was measured in terms of G6PDH activity. The increase in the rate at 340 nm was due to the formation of NADH and is proportional to the enzyme conjugate activity. An assay calibration curve was generated using levetiracetam spiked into negative calibrator matrix. The assay rate increases with increasing the concentration of drug in the sample.
The major metabolic pathway of levetiracetam (24% of dose) is an enzymatic hydrolysis of the acetamide group. The metabolites have no known pharmacological activity and are renally excreted. To human serum negative for levetiracetam was added levetiracetam dissolved in methanol to achieve a concentration of concentration of 30 μg/mL of levetiracetam (FIG. 1(1)).
To a second sample was added 2-pyrrolidone-N-butyric acid dissolved in methanol to achieve a concentration of 150.0 μg/mL 2-pyrrolidone-N-butyric acid (FIG. 1(2)). To a third sample was added 30 μg/mL of levetiracetam plus 406.4 μg/mL 2-pyrrolidone-N-butyric acid (FIG. 1(2)). The samples were assayed on the HITACHI 917. The levetiracetam metabolite, 2-pyrrolidone-N-butyric acid was tested in the immunoassay for potential crossreactivity with Enzyme Conjugate Reagent #110607-D63-E containing conjugate (44-G6PDH) and Antibody Reagent #11341P4-6-Ab containing antibody #12019-P8.

[1] = in vivo; cited from earlier work
[2] = tested on: rabbit polyclonal antibody #12019-P8; assay: Homogeneous enzyme immunoassay (ARK Assay) calibration curve on HITACHI 917, conjugate (44-G6PDH); assay type: binding
Method: Rabbit polyclonal antibody #12019-P8 was used to measure a substantial change in enzyme activity, generate a calibration curve, and evaluate assay precision, accuracy and specificity. The antibody was added into the antibody diluent to prepare the antibody reagent. The antibody reagent consists of antibody as prepared above, buffer, stabilizers, preservatives, and the substrates for the enzyme conjugate nicotinamide adenine dinucleotide (NAM and glucose-6-phosphate. Enzyme conjugate comprising compound (44-G6PDH) G6PDH was added into the conjugate reagent to prepare the enzyme conjugate reagent. The enzyme conjugate reagent comprises the conjugate, buffer, stabilizers and preservatives. Enzyme conjugate (44-G6PDH) was used with rabbit polyclonal antibody #12019-P8 in examples below. This technique is generally applicable to produce polyclonal antibodies to levetiracetam derivatives and assess their utility.
as §1
Levetiracetam was dissolved in methanol to give a stock solution of 1000 μg/mL. Pooled human serum was aliquoted in 10 mL portions. Levetiracetam stock solution was added to the aliquots of human serum in preparing a series of known concentrations of levetiracetam calibrators ranging from 0 to 100 μg/mL. Similarly, Quality Control samples were prepared (15.0, 35.0 and 75.0 μg/mL). The antibody/substrate reagent #11341P4-6-Ab containing antibody ##12019-P8 was assayed with enzyme reagent #110607-D63-E containing conjugate (44-G6PDH). Calibration curves were generated on the HITACHI 917 automated clinical chemistry analyzer, as described in Example 23 by assaying each level in duplicate.

Row | Reaction Rate (mA/min) Average of Duplicates ([2]; levetiracetam calibrator 5.0 μg/mL in pooled human serum) | Reaction Rate (mA/min) Average of Duplicates ([2]; levetiracetam calibrator 10.0 μg/mL in pooled human serum) | Reaction Rate (mA/min) Average of Duplicates ([2]; levetiracetam calibrator 25.0 μg/mL in pooled human serum) | Reaction Rate (mA/min) Average of Duplicates ([2]; levetiracetam calibrator 50.0 μg/mL in pooled human serum) | Reaction Rate (mA/min) Average of Duplicates ([2]; levetiracetam calibrator 100.0 μg/mL in pooled human serum) | Compound | Levetiracetam Result (antibody #12019-P8; Concentration Tested 150.0 μg/mL in human serum) | % Cross Reactivity (antibody #12019-P8; Concentration Tested 150.0 μg/mL) | Levetiracetam Result (antibody #12019-P8; Concentration Tested 406.4 μg/mL in human serum) | % Cross Reactivity (antibody #12019-P8; Concentration Tested 406.4 μg/mL) | Crossreactivity of antibody #12019-P8 (in words) (antibody #12019-P8; conjugate (44-G6PDH), HITACHI 917) | Levetiracetam Result (antibody #12019-P8; Concentration Tested 30.0 μg/mL in human serum) | % Cross Reactivity (antibody #12019-P8; Concentration Tested 30.0 μg/mL) | Major metabolic pathway: enzymatic hydrolysis of the acetamide group [1]
1 |  |  |  |  |  | 2-pyrrolidone-N-butyric acid | 0 µg/mL | 0% | 0 µg/mL | 0% | does not crossreact |  |  | 
2 | 547.4 mA/min | 561.2 mA/min | 586.9 mA/min | 607.5 mA/min | 626.0 mA/min | CC[C@@H](C(N)=O)N1CCCC1=O (single isomer, unassigned) [Levetiracetam] |  |  |  |  |  | 29.9 µg/mL | 100% | 24 % of dose
